Assay results taken from EP2329817A1, “Retinoic acid receptor antagonists, miR-10a inhibitors and inhibitors of HOXB1 or HOXB3 repressors for treating pancreatic cancer” (Ernst-Moritz-Arndt-Universität Greifswald, priority 2009, dated 2011).
Several values for one entry are separate records, joined by “and”; a condition that tells them apart may be missing. Equal entries are not always repeated.

Key:
[1] = test system: PaTu-T cells; test: Cell survival and cell cycle distribution by propidium iodine staining (FACS); type: cell-based, human
Text: Targeting endogenous miR-10a with Morpholinos rendered PaTu-T-cells non-invasive and prevented metastatic behaviour in zebrafish embryos, whereas a control Morpholino had no such effect (Fig.4 B, Table1 and Supplemental Table 1). […] (analysed by propidium iodine (PI) staining, data not shown).
We used the selective RARα antagonist Ro-41-5253; to analyze its anti-migratory activity in an in vitro migration assay ("scratch assay") and in the zebrafish xenotransplantation model, respectively. […] Similar results were obtained when PaTu-T cells were treated with RAR -specific siRNAs (Supplemental Table 1 and Supplemental Fig. 1).
Supplemental Figure 3: Cell cycle analysis of RARα siRNA or Ro-415253 treated PaTu-T cells. Cells were treated with either DMSO control (A), RARα siRNA (B) or 200 nM Ro-415253 (C) and fixed after 24h with 70% EtOH. Following propidium iodine (PI) staining the cells were analysed by a LSR2 FACS sorter (Becton Dickinson). […] Gate P2 indicates cells in G0/1 phase, gate 3 represents cells in S phase and gate 4 represents Cells in M/G2 phase.

[2] = biological target: T1, RARα (Homo sapiens, UniProt P10276); settings: literature references 14, 15; read-out: 50% inhibition; cited from earlier work
T1 sequence (P10276 1-462): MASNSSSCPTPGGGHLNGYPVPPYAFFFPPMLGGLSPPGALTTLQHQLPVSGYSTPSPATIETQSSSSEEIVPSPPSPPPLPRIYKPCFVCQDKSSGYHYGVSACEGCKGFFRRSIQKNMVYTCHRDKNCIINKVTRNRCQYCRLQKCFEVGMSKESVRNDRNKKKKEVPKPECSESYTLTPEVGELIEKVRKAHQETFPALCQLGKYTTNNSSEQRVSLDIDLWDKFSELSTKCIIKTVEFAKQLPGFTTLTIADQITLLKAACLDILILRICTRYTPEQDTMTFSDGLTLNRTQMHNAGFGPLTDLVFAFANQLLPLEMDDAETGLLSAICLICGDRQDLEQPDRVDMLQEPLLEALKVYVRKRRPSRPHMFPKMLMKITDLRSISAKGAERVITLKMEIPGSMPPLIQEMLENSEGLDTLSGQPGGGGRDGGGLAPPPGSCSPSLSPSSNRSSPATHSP

[3] = test system: PaTu-S cells; test: Zebrafish embryo xenotransplantation: invasion and metastatic behaviour of pretreated PaTu-S cells; type: in vivo, human
Protocol: Zebrafish (Danio rerio) (Tuebingen line, AIB strain (Albinos) and Tg (fli1:eGFP) were handled in compliance with local animal care regulations and standard protocols of the Netherlands and Germany. Fish were kept at 28°C in aquaria with day/night light cycles (10 h dark versus 14 h light periods). The developing embryos were kept in an incubator at constant temperatures.
The selective RARα antagonist Ro-41-5253 was purchased from Biomol International, dissolved in DMSO and cells were treated overnight prior to injections at a final concentration of 200 nM (50% inhibition at 60nM)^14,15. Retinoic acid (ATRA, Sigma) was added to cells ON at a final concentration of 1 µM.
Cells were stained with CM-Dil (red fluorescence) at a 1:1000 dilution according to the manufacturers protocol (Vybrant, Invitrogen). Cells were suspended in 67% DPBS for injection into embryos. 2dpf zebrafish embryos were dechorionated and tranquilized with tricaine (Sigma). An injection needle (15µm diameter) with a manual injector (Eppendorf; Celltram Vario) was used to inject ∼200 cells into the yolk sac of 2dpf zebrafish embryos. On average 80 embryos were injected for each treatment and embryos with detectable cell scatter 2 h after the transfer (and therefore presumably due to the transfer procedure) were excluded from further analysis. Presence of cells was checked after 2 h incubation at 31°C and embryos were subsequently kept at 35°C. We defined metastasis based on the number of fluorescent cells that were detected outside the yolk sac 2 days after the transfer. Presence of 5 or more cells was considered "metastasised" and percentages of metastasised fish in each experiment were counted. The occurence of micro-metastasis is indicated by cell clusters of ≥4 cells presumably originating from cell division. PaTu-S cells and ASPC1 cells were transfected ON with indicated concentrations of miR-10a siRNA in the presence of ICA-Fectin TM442 (Eurogentec, Belgium). Whole cell lysates were prepared 36h post-transfection and 40 µg of total lysates were separated on 7.5% PAA-gels and blotted with anti E-cadherin, α-catenin, β-catenin (all mAbs, Transduction Labs) and actin antibodies (mAb Sigma-Aldrich, Germany).
Morpholino antisense oligonucleotides were obtained from Gene Tools, LLC (OR, USA) and used as previously described^19. The miR-10a antisense Morpholino sequence is: […]. Standard control Morpholino was […]. Both miR-10a and control Morpholinos were fluorescein labeled. The siRNAs for human HOXB1, human HOXB3 and human RARα were purchased from Santa Cruz Biotechnology (HOXB1: sc-38686, HOXB3: sc-38690 and RARα: sc-29465). EndoPorter (Gene Tools, LLC) was used to deliver Morpholinos and siRNAs into cells and efficiencies for Morpholinos were checked by fluorescence microscopy to be >98%. For the miR-10a siRNA, the sense strand corresponds to […]. The sequence of control siRNA (miR-196a) was […] with the corresponding antisense sequence). 30 µl of each siRNA oligo (50 µM) were annealed by gradually cooling from 98°C to 20°C in a volume of 75 µl annealing buffer (50 mM Tris, pH 7.8, 100 mM NaCl RNAse free). The effect of miR-10a Morpholinos on miR-10a function was tested with a sensor construct: pCS2+ EGFP 4x miR-10 AS containing 4 copies of a miR-10a antisense sequence.

[4] = Experiment 1, Day 1, number of embryos
[5] = Experiment 1, Day 2, number of embryos
[6] = Experiment 1, Day 3, number of embryos
[7] = Experiment 2, Day 1, number of embryos
[8] = Experiment 2, Day 2, number of embryos
[9] = Experiment 2, Day 3, number of embryos

CCCCCCCOc1cc2c(cc1/C(C)=C/c1ccc(C(=O)O)cc1)C(C)(C)CCS2(=O)=O [Ro-41-5253, Benzoic acid, 4-(2-(7-(heptyloxy)-3,4-dihydro-4,4-dimethyl-2H-1-benzothiopyran-6-yl)-1-propenyl)-, S,S-dioxide, (E)]
cell cycle distribution ([1]; 24h, Ro-415253 at 200 nM, PI staining, FACS): No differences | general cell survival ([1]; propidium iodine (PI) staining): no adverse affects | IC50 [2]: 0.06 µM

CC1=C(/C=C/C(C)=C/C=C/C(C)=C/C(=O)O)C(C)(C)CCC1 [RA, all trans retinoic acid]
total >5 ([3]; Experiment 1, number of embryos (equals the Day 1 total)): 14 | Migration 5 to 20 [3, 4]: 11 | Migration <5 [3, 4]: 1 | Migration >20 [3, 4]: 3 | total >5 [3, 4]: 14 | Migration 5 to 20 [3, 5]: 10 | Migration <5 [3, 5]: 0 | Migration >20 [3, 5]: 4 | total >5 [3, 5]: 14 | Migration 5 to 20 [3, 6]: 19 | Migration <5 [3, 6]: 0 | Migration >20 [3, 6]: 3 | total >5 [3, 6]: 12 | total >5 ([3]; Experiment 1, summary line, percentage in brackets (of embryos alive)): 24.1% | total >5 ([3]; Experiment 2, number of embryos (equals the Day 1 total)): 20 | Migration 5 to 20 [3, 7]: 15 | Migration <5 [3, 7]: 1 | Migration >20 [3, 7]: 5 | total >5 [3, 7]: 20 | Migration 5 to 20 [3, 8]: 13 | Migration <5 [3, 8]: 1 | Migration >20 [3, 8]: 4 | total >5 [3, 8]: 17 | Migration 5 to 20 [3, 9]: 12 | Migration <5 [3, 9]: 1 | Migration >20 [3, 9]: 5 | total >5 [3, 9]: 17 | total >5 ([3]; Experiment 2, summary line, percentage in brackets (of embryos alive)): 31.2% | Average % (observed metastasised embryos) ([3]; Table 1, pretreated PaTu-S cells transplanted into zebrafish embryos, average of 2-4 experiments): 27.7% | %migration, Average ([3]; average of experiments, PaTu-S): 27.7% | %migration ([3]; single experiments, PaTu-S): 24.1% and 31.2%
